# Laboratory results as given in paper PMC5418314, “First-in-human phase I study of SOR-C13, a TRPV6 calcium channel inhibitor, in patients with advanced solid tumors” (Investigational New Drugs, 2017).
# Ends that are not written are not given here.
# Tests used:
# [1] = Phase I safety and tolerability (NCI CTCAE v4.0, DLT) in patients with advanced solid tumors; type: in vivo, human
# Experimental: Dose-escalation was carried out according to a standard 3 + 3 design. At each dose level, cohorts of 3 to 6 patients were scheduled to receive two 21-day cycles of SOR-C13 treatment. SOR-C13 was administered on days 1–3 and 8–10 of the 21-day cycle was administered by IV infusion. The study drug (500 mg/vial) was dissolved in water for injection (2 mL) and diluted in saline prior to infusion to provide a 250 mL (total) infusion volume. Infusion time was increased after the first five patients from the initial 20 min to 90 min with the aim of increasing the safety and tolerability of the drug. In the event of clinically meaningful response (tumor response or stable disease), additional SOR-C13 cycles were offered to study patients. Post-treatment follow-up was completed one and two months after completion of SOR-C13 treatment.
# (§1) A Safety Monitoring Committee (SMC) oversaw the safety aspects of the study. Safety endpoints included: incidence of adverse events (AEs) and serious AEs (SAEs), withdrawals due to AEs, Dose Limiting Toxicities (DLTs), infusion reactions, deaths on study, vital signs, electrocardiogram (ECGs), clinical laboratory parameters and changes to the treatment regimen (dose delay, dose decrease) due to AEs. The National Cancer Institute (NCI) Common Terminology Criteria for Adverse Events (CTCAE) Version 4.0 was used to grade the severity of AEs.
# Based on the safety data from the first two cohorts, the regulatory authorities approved a revision of the definition to “one occurrence of ≥Grade 3 toxicity or one occurrence of Grade 2 hypocalcemia, over the first 21-day cycle”. The latter definition was used for the subsequent four cohorts in the study.
# [2] = half-life in the blood compartment, rat; type: in vivo
# [3] = tested on: voltage-gated potassium channels; assay: voltage-gated potassium channel activity; type: biochemical
# Phase I ECG assessment = type: in vivo, human
# Excerpt: as §1
# [4] = peptide degradation in rat plasma; type: in vitro ADME
# [5] = Cohort 1 5.5 mg/kg N = 3, 20-min infusions
# [6] = Cohort 1, 5.50 mg/kg, C1 D2, Dose# 2
# [7] = Cohort 1, 5.50 mg/kg, C1 D8, Dose# 4
# [8] = Cohort 2 2.75 mg/kg N = 2, 20-min infusions
# [9] = Cohort 2, 2.75 mg/kg, C1 D2, Dose# 2
# [10] = Cohort 3 1.375 mg/kg N = 3, 90-min infusions
# [11] = Cohort 4 2.75 mg/kg N = 6, 90-min infusions
# [12] = Cohort 4, 2.75 mg/kg, C1 D3, Dose# 3
# [13] = Cohort 5 4.13 mg/kg N = 3, 90-min infusions
# [14] = Cohort 6 6.20 mg/kg N = 6, 90-min infusions
# [15] = Cohort 6, 6.20 mg/kg, C1 D8, Post 3
# [16] = Cohort 6, 6.20 mg/kg, C1 D18, Post 6
sequence,measurement,setting,value
KEFLHPSKVDLPR [SOR-C13],"Any TEAEs, Event",[1]; All Patients N = 23,185
same,"TEAEs Definitely related, Event",[1]; All Patients N = 23,5
same,"TEAEs Possibly related, Event",[1]; All Patients N = 23,29
same,"TEAEs Probably related, Event",[1]; All Patients N = 23,7
same,"TEAEs Remotely/Unlikely related, Event",[1]; All Patients N = 23,10
same,"TEAEs Remotely/Unlikely related, Patient",[1]; All Patients N = 23,4 (17)
same,"TEAEs Unrelated, Event",[1]; All Patients N = 23,134
same,"TEAEs Unrelated, Patient",[1]; All Patients N = 23,21 (91)
same,"Any TEAEs, Event",[1]; [5],49
same,"Any TEAEs, Patient",[1]; [5],3 (100)
same,"TEAEs Definitely related, Event",[1]; [5],5
same,"TEAEs Definitely related, Patient",[1]; [5],2 (67)
same,"TEAEs Possibly related, Event",[1]; [5],3
same,"TEAEs Possibly related, Patient",[1]; [5],2 (67)
same,"TEAEs Probably related, Event",[1]; [5],3
same,"TEAEs Probably related, Patient",[1]; [5],2 (67)
same,"TEAEs Remotely/Unlikely related, Event",[1]; [5],4
same,"TEAEs Remotely/Unlikely related, Patient",[1]; [5],1 (33)
same,"TEAEs Unrelated, Event",[1]; [5],34
same,"TEAEs Unrelated, Patient",[1]; [5],3 (100)
same,"DLT Blood calcium decreased, Relationship",[1]; [6],Probably related
same,"DLT Blood calcium decreased, Severity",[1]; [6],Grade 2
same,"DLT Blood calcium decreased, Relationship",[1]; [7],Definitely related
same,"DLT Blood calcium decreased, Severity",[1]; [7],Grade 2
same,"Any TEAEs, Event",[1]; [8],11
same,"Any TEAEs, Patient",[1]; [8],2 (100)
same,"TEAEs Definitely related, Event",[1]; [8],0
same,"TEAEs Definitely related, Patient",[1]; [8],0 (0)
same,"TEAEs Possibly related, Event",[1]; [8],0
same,"TEAEs Possibly related, Patient",[1]; [8],0 (0)
same,"TEAEs Probably related, Event",[1]; [8],1
same,"TEAEs Probably related, Patient",[1]; [8],1 (50)
same,"TEAEs Remotely/Unlikely related, Event",[1]; [8],0
same,"TEAEs Remotely/Unlikely related, Patient",[1]; [8],0 (0)
same,"TEAEs Unrelated, Event",[1]; [8],10
same,"TEAEs Unrelated, Patient",[1]; [8],2 (100)
same,"DLT Blood calcium decreased, Relationship",[1]; [9],Probably related
same,"DLT Blood calcium decreased, Severity",[1]; [9],Grade 2
same,"Any TEAEs, Event",[1]; [10],25
same,"Any TEAEs, Patient",[1]; [10],3 (100)
same,"TEAEs Definitely related, Event",[1]; [10],0
same,"TEAEs Definitely related, Patient",[1]; [10],0 (0)
same,"TEAEs Possibly related, Event",[1]; [10],0
same,"TEAEs Possibly related, Patient",[1]; [10],0 (0)
same,"TEAEs Probably related, Event",[1]; [10],0
same,"TEAEs Probably related, Patient",[1]; [10],0 (0)
same,"TEAEs Remotely/Unlikely related, Event",[1]; [10],2
same,"TEAEs Remotely/Unlikely related, Patient",[1]; [10],1 (33)
same,"TEAEs Unrelated, Event",[1]; [10],23
same,"TEAEs Unrelated, Patient",[1]; [10],3 (100)
same,frequency of drug-related TEAEs,"[1]; Cohort 3 (1.375 mg/kg), 90-min infusions",0%
same,"Any TEAEs, Event",[1]; [11],52
same,"Any TEAEs, Patient",[1]; [11],6 (100)
same,"TEAEs Definitely related, Event",[1]; [11],0
same,"TEAEs Definitely related, Patient",[1]; [11],0 (0)
same,"TEAEs Possibly related, Event",[1]; [11],11
same,"TEAEs Possibly related, Patient",[1]; [11],4 (67)
same,"TEAEs Probably related, Event",[1]; [11],0
same,"TEAEs Probably related, Patient",[1]; [11],0 (0)
same,"TEAEs Remotely/Unlikely related, Event",[1]; [11],4
same,"TEAEs Remotely/Unlikely related, Patient",[1]; [11],2 (33)
same,"TEAEs Unrelated, Event",[1]; [11],37
same,"TEAEs Unrelated, Patient",[1]; [11],6 (100)
same,frequency of drug-related TEAEs,"[1]; Cohort 4 (2.75 mg/kg), 90-min infusions",67%
same,"DLT Ionized calcium decreased, Relationship",[1]; [12],Possibly related
same,"DLT Ionized calcium decreased, Severity",[1]; [12],Grade 2
same,"Any TEAEs, Event",[1]; [13],14
same,"Any TEAEs, Patient",[1]; [13],3 (100)
same,"TEAEs Definitely related, Event",[1]; [13],0
same,"TEAEs Definitely related, Patient",[1]; [13],0 (0)
same,"TEAEs Possibly related, Event",[1]; [13],5
same,"TEAEs Possibly related, Patient",[1]; [13],3 (100)
same,"TEAEs Probably related, Event",[1]; [13],3
same,"TEAEs Probably related, Patient",[1]; [13],1 (33)
same,"TEAEs Remotely/Unlikely related, Event",[1]; [13],0
same,"TEAEs Remotely/Unlikely related, Patient",[1]; [13],0 (0)
same,"TEAEs Unrelated, Event",[1]; [13],6
same,"TEAEs Unrelated, Patient",[1]; [13],2 (67)
same,frequency of drug-related TEAEs,"[1]; Cohort 5 (4.13 mg/kg), 90-min infusions",100%
same,"Any TEAEs, Event",[1]; [14],34
same,"Any TEAEs, Patient",[1]; [14],6 (100)
same,"TEAEs Definitely related, Event",[1]; [14],0
same,"TEAEs Definitely related, Patient",[1]; [14],0 (0)
same,"TEAEs Possibly related, Event",[1]; [14],10
same,"TEAEs Possibly related, Patient",[1]; [14],6 (100)
same,"TEAEs Probably related, Event",[1]; [14],0
same,"TEAEs Probably related, Patient",[1]; [14],0 (0)
same,"TEAEs Remotely/Unlikely related, Event",[1]; [14],0
same,"TEAEs Remotely/Unlikely related, Patient",[1]; [14],0 (0)
same,"TEAEs Unrelated, Event",[1]; [14],24
same,"TEAEs Unrelated, Patient",[1]; [14],5 (83)
same,frequency of drug-related TEAEs,"[1]; Cohort 6 (6.20 mg/kg), 90-min infusions",100%
same,"DLT Atrial fibrillation, Relationship",[1]; [15],Unrelated
same,"DLT Atrial fibrillation, Severity",[1]; [15],Grade 3
same,"DLT Anaemia, Relationship",[1]; [16],Unrelated
same,"DLT Anaemia, Severity",[1]; [16],Grade 3
same,Grade 4 TEAEs,[1]; N = 23,No Grade 4 TEAE occurred
same,"TEAEs by MedDRA SOC: Gastrointestinal disorders, patients",[1]; N = 23,48%
same,"TEAEs by MedDRA SOC: General disorders and administration site conditions, patients",[1]; N = 23,44%
same,"TEAEs by MedDRA SOC: Infections and infestations, patients",[1]; N = 23,48%
same,"TEAEs by MedDRA SOC: Investigations, patients",[1]; N = 23,44%
same,"TEAEs by MedDRA SOC: Metabolism and nutrition disorders, patients",[1]; N = 23,65%
same,drug-related Serious Adverse Events (SAEs),[1]; N = 23,No drug-related Serious Adverse Events (SAEs) occurred
same,"TEAE Anaemia, percentage of patients","[1]; N = 23, MedDRA preferred term",30%
same,"TEAE Aspartate amino transferase increased, percentage of patients","[1]; N = 23, MedDRA preferred term",17%
same,"TEAE Blood Calcium Decreased, percentage of patients","[1]; N = 23, MedDRA preferred term",22%
same,"TEAE Blood alkaline phosphatase increased, percentage of patients","[1]; N = 23, MedDRA preferred term",13%
same,"TEAE Constipation, percentage of patients","[1]; N = 23, MedDRA preferred term",17%
same,"TEAE Cough, percentage of patients","[1]; N = 23, MedDRA preferred term",17%
same,"TEAE Decreased Appetite, percentage of patients","[1]; N = 23, MedDRA preferred term",22%
same,"TEAE Diarrhoea, percentage of patients","[1]; N = 23, MedDRA preferred term",13%
same,"TEAE Fatigue, percentage of patients","[1]; N = 23, MedDRA preferred term",30%
same,"TEAE Hypercalcaemia, percentage of patients","[1]; N = 23, MedDRA preferred term",13%
same,"TEAE Hyperkalaemia, percentage of patients","[1]; N = 23, MedDRA preferred term",13%
same,"TEAE Hypoalbuminaemia, percentage of patients","[1]; N = 23, MedDRA preferred term",30%
same,"TEAE Hypocalcaemia, percentage of patients","[1]; N = 23, MedDRA preferred term",13%
same,"TEAE Nausea, percentage of patients","[1]; N = 23, MedDRA preferred term",22%
same,"TEAE Urinary Tract Infection, percentage of patients","[1]; N = 23, MedDRA preferred term",30%
same,total number of Grade 3 TEAEs,"[1]; N = 23, in thirteen patients",18
same,patients with DLTs,"[1]; all cohorts, N = 23, first 21-day cycle",26.1%
same,"drug-related blood calcium decrease, patients",[1]; all patients N = 23,13%
same,"drug-related decreased appetite, patients",[1]; all patients N = 23,9%
same,"drug-related hypoalbuminemia, patients",[1]; all patients N = 23,30%
same,"drug-related hypocalcemia, patients",[1]; all patients N = 23,13%
same,"drug-related increased aspartate aminotransferase (AST), patients",[1]; all patients N = 23,9%
same,Maximal Tolerated Dose (MTD),[1]; doses up to 6.2 mg/kg,not established
same,"drug-related hypocalcemia, patients",[1]; patients receiving 90-min infusions (n = 18),13%
same,patients with TEAEs related to the study drug,"[1]; possibly, probably or definitely related, total population N = 23",70%
same,Grade 3 TEAEs assessed as related to the study drug,"[1]; urticaria, ALT increased, AST increased, headache, hypokalaemia",Five of the 18
same,deaths during treatment or post-treatment follow-up,[1]; within two months after the last study drug administration,No deaths occurred
same,half-life in the blood compartment,[2],< 5 min
same,modulation of channel activity,[3],no modulation of channel activity
same,mean changes in QTc intervals compared to pre-infusion values,"Phase I ECG assessment; 90-min infusions (N = 18), Cycle 1",−4.2 to +12.7 msec
same,ECG abnormalities,Phase I ECG assessment; during the study,No clinically significant ECG abnormalities
same,QT or QTc prolongations above 500 msec,Phase I ECG assessment; during the study,no QT or QTc prolongations above 500 msec
same,QTc prolongation >60 msec compared to baseline or same-day pre-dose values,Phase I ECG assessment; during the study,no patient experienced QTc prolongation >60 msec
same,peptide degradation half-life,[4],about 1 h
